Drawing on patent publication US20230295197A1, “STAT5 and STAT6 Degraders and Uses Thereof” (REGENTS OF THE UNIVERSITY OF MICHICAN, priority 2022, published 2023), this text covers DC50 for nine compounds.

Read-outs that look alike come from different tables or passages of the source. A value given as a limit tells only on which side of the number the result lay.

The target in the experiment is T1, STAT6 (Homo sapiens, UniProt P42226).
T1 construct: endogenous in cells; host or cells: MOLM-16, KU-812, SKNO1, MB231, L1236
T1 sequence (P42226 1-847): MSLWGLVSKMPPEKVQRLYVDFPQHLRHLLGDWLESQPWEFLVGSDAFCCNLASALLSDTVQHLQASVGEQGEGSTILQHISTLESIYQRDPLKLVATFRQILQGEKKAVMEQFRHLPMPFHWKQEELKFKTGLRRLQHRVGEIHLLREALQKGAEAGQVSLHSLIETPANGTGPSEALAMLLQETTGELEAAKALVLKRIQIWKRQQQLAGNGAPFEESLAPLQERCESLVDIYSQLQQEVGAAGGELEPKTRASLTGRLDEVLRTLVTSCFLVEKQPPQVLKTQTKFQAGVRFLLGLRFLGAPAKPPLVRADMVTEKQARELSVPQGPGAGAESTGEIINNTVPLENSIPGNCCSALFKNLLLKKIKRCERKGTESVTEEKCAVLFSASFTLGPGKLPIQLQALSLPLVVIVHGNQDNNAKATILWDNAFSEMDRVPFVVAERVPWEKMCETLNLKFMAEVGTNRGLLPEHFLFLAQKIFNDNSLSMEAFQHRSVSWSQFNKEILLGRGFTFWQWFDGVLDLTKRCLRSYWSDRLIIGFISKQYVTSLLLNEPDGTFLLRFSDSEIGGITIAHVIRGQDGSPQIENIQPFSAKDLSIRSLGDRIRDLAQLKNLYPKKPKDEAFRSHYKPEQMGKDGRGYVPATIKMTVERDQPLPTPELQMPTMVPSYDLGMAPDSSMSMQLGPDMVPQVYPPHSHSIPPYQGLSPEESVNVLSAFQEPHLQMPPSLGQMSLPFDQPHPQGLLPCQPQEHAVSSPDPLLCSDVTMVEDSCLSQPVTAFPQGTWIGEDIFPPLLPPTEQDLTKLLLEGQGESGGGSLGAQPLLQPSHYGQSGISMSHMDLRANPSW
Kind of experiment: Immunoblotting (Western blot) analysis of STAT6 degradation efficiency of degraders in treated cells. It is filed as cell-based. In outline:
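Cells (~1 million per point) treated with compounds at indicated concentrations and times, lysed in RIPA with protease/phosphatase inhibitors; 20-40 μg protein run on SDS-PAGE and blotted to PVDF. STAT6 or STAT5 rabbit mAbs with GAPDH loading control, IRDye secondaries; near-infrared fluorescence scan, band intensity quantified.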

Setting [1] is: MOLM-16 cells, class symbols, read-out: DC50 S6 MOLM-16.
[2] abbreviates: L1236 cells, read-out: DC50 S6 L1236.
The mark [3] stands for this setting: MOLM-16 cells, numeric bound, read-out: DC50 S6 MOLM-16.

As a reminder, the DC50 is the concentration at which degradation of the target reaches its halfway point.

As for `CC(C)(C)[C@H](NC(=O)c1cc2cc(C(F)(F)P(=O)(O)O)ccc2s1)C(=O)N1CCN(C(=O)CC(=O)NCCCCCCCCC#Cc2cccc3c2C(=O)N(C2CCC(=O)NC2=O)C3=O)C[C@H]1C(=O)N1CCO[C@H](c2ccccc2)C1` (stereo partly drawn) [Compound 517, ((2-(((2S)-1-((2S)-4-(3-((10-(2-(2,6-dioxopiperidin-3-yl)-1,3-dioxoisoindolin-4-yl)dec-9-yn-1-yl)amino)-3-oxopropanoyl)-2-((R)-2-phenylmorpholine-4-carbonyl)piperazin-1-yl)-3,3-dimethyl-1-oxobutan-2-yl)carbamoyl)benzo[b]thiophen-5-yl)difluoromethyl)phosphonic acid], the DC50 under setting [1] is above 10 µM.

As for `Cc1ncsc1-c1ccc([C@H](C)NC(=O)[C@@H]2C[C@@H](O)CN2C(=O)[C@@H](NC(=O)CCCCCCNC(=O)CC(=O)N2CCN(C(=O)[C@@H](NC(=O)c3cc4cc(C(F)(F)P(=O)(O)O)ccc4s3)C(C)(C)C)[C@H](C(=O)N3CCC[C@H](c4ccccc4)C3)C2)C(C)(C)C)cc1` [Compound 457, (difluoro(2-(((S)-1-((S)-4-(3-((7-(((S)-1-((2S,4R)-4-hydroxy-2-(((S)-1-(4-(4-methylthiazol-5-yl)phenyl)ethyl)carbamoyl)pyrrolidin-1-yl)-3,3-dimethyl-1-oxobutan-2-yl)amino)-7-oxoheptyl)amino)-3-oxopropanoyl)-2-((R)-3-phenylpiperidine-1-carbonyl)piperazin-1-yl)-3,3-dimethyl-1-oxobutan-2-yl)carbamoyl)benzo[b]thiophen-5-yl)methyl)phosphonic acid], the DC50 by setting is: under setting [2], above 10 µM; under setting [1], above 10 µM.

Regarding `Cc1ncsc1-c1ccc([C@H](C)NC(=O)[C@@H]2C[C@@H](O)CN2C(=O)[C@@H](NC(=O)CNC(=O)CC(=O)N2CCN(C(=O)[C@@H](NC(=O)c3cc4cc(C(F)(F)P(=O)(O)O)ccc4s3)C(C)(C)C)[C@H](C(=O)N3CCC[C@H](c4ccccc4)C3)C2)C(C)(C)C)cc1` [Compound 452, (difluoro(2-(((S)-1-((S)-4-(3-((2-(((S)-1-((2S,4R)-4-hydroxy-2-(((S)-1-(4-(4-methylthiazol-5-yl)phenyl)ethyl)carbamoyl)pyrrolidin-1-yl)-3,3-dimethyl-1-oxobutan-2-yl)amino)-2-oxoethyl)amino)-3-oxopropanoyl)-2-((R)-3-phenylpiperidine-1-carbonyl)piperazin-1-yl)-3,3-dimethyl-1-oxobutan-2-yl)carbamoyl)benzo[b]thiophen-5-yl)methyl)phosphonic acid], the DC50 by setting is: under setting [2], above 10 µM; under setting [1], above 10 µM.

Take `CC(C)(C)[C@H](NC(=O)c1cc2cc(C(F)(F)P(=O)(O)O)ccc2s1)C(=O)N1Cc2cc(OCC(=O)NCCCCCC#Cc3cccc4c3C(=O)N(C3CCC(=O)NC3=O)C4=O)ccc2C[C@H]1C(=O)N1CCC[C@H](c2ccccc2)C1` (stereo partly drawn) [Compound 557, ((2-(((2S)-1-((3S)-7-(2-((7-(2-(2,6-dioxopiperidin-3-yl)-1,3-dioxoisoindolin-4-yl)hept-6-yn-1-yl)amino)-2-oxoethoxy)-3-((R)-3-phenylpiperidine-1-carbonyl)-3,4-dihydroisoquinolin-2(1H)-yl)-3,3-dimethyl-1-oxobutan-2-yl)carbamoyl)benzo[b]thiophen-5-yl)difluoromethyl)phosphonic acid]: under setting [1], the DC50 is above 10 µM.

With `CC(C)(C)[C@H](NC(=O)c1cc2cc(C(F)(F)P(=O)(O)O)ccc2s1)C(=O)N1CCN(C(=O)CCCC#Cc2ccc3c(c2)CN(C2CCC(=O)NC2=O)C3=O)C[C@H]1C(=O)N1CCO[C@H](c2ccccc2)C1` (stereo partly drawn) [Compound 597, ((2-(((2S)-1-((2S)-4-(6-(2-(2,6-dioxopiperidin-3-yl)-1-oxoisoindolin-5-yl)hex-5-ynoyl)-2-((R)-2-phenylmorpholine-4-carbonyl)piperazin-1-yl)-3,3-dimethyl-1-oxobutan-2-yl)carbamoyl)benzo[b]thiophen-5-yl)difluoromethyl)phosphonic acid], the half-maximal degradation concentration (DC50) under setting [3] was above 0.3 µM.

On to `CC(C)(C)[C@H](NC(=O)c1cc2cc(C(F)(F)P(=O)(O)O)ccc2s1)C(=O)N1CCN(C(=O)CC(=O)NCCCCCCCCC#Cc2ccc3c(c2)C(=O)N(C2CCC(=O)NC2=O)C3=O)C[C@H]1C(=O)N1CCC[C@H](c2ccccc2)C1` (stereo partly drawn) [Compound 532, ((2-(((2S)-1-((2S)-4-(3-((10-(2-(2,6-dioxopiperidin-3-yl)-1,3-dioxoisoindolin-5-yl)dec-9-yn-1-yl)amino)-3-oxopropanoyl)-2-((R)-3-phenylpiperidine-1-carbonyl)piperazin-1-yl)-3,3-dimethyl-1-oxobutan-2-yl)carbamoyl)benzo[b]thiophen-5-yl)difluoromethyl)phosphonic acid], for which, under setting [1], the DC50 was above 10 µM.

For the compound `CC(C)(C)[C@H](NC(=O)c1cc2cc(C(F)(F)P(=O)(O)O)ccc2s1)C(=O)N1C[C@@H](OCCCCCCC#Cc2cccc3c2CN(C2CCC(=O)NC2=O)C3=O)C[C@H]1C(=O)N1CCOC(c2cccc3ccccc23)C1` (stereo partly shown) [Compound 612], the DC50 under setting [3] is above 0.3 µM.

With `Cc1ncsc1-c1ccc([C@H](C)NC(=O)[C@@H]2C[C@@H](O)CN2C(=O)[C@@H](NC(=O)CNC(=O)COc2ccc3c(c2)CN(C(=O)[C@@H](NC(=O)c2cc4cc(C(F)(F)P(=O)(O)O)ccc4s2)C(C)(C)C)[C@H](C(=O)N2CCO[C@H](c4ccccc4)C2)C3)C(C)(C)C)cc1` [Compound 461, (difluoro(2-(((S)-1-((S)-7-(2-((2-(((S)-1-((2S,4R)-4-hydroxy-2-(((S)-1-(4-(4-methylthiazol-5-yl)phenyl)ethyl)carbamoyl)pyrrolidin-1-yl)-3,3-dimethyl-1-oxobutan-2-yl)amino)-2-oxoethyl)amino)-2-oxoethoxy)-3-((R)-2-phenylmorpholine-4-carbonyl)-3,4-dihydroisoquinolin-2(1H)-yl)-3,3-dimethyl-1-oxobutan-2-yl)carbamoyl)benzo[b]thiophen-5-yl)methyl)phosphonic acid], the DC50 was above 10 µM under setting [2] and above 10 µM under setting [1].

`Cc1ncsc1-c1ccc([C@H](C)NC(=O)[C@@H]2C[C@@H](O)CN2C(=O)[C@@H](NC(=O)CCCCCCCCNC(=O)CC(=O)N2CCN(C(=O)[C@@H](NC(=O)c3cc4cc(C(F)(F)P(=O)(O)O)ccc4s3)C(C)(C)C)[C@H](C(=O)N3CCC[C@H](c4ccccc4)C3)C2)C(C)(C)C)cc1` [Compound 459, (difluoro(2-(((S)-1-((S)-4-(3-((9-(((S)-1-((2S,4R)-4-hydroxy-2-(((S)-1-(4-(4-methylthiazol-5-yl)phenyl)ethyl)carbamoyl)pyrrolidin-1-yl)-3,3-dimethyl-1-oxobutan-2-yl)amino)-9-oxononyl)amino)-3-oxopropanoyl)-2-((R)-3-phenylpiperidine-1-carbonyl)piperazin-1-yl)-3,3-dimethyl-1-oxobutan-2-yl)carbamoyl)benzo[b]thiophen-5-yl)methyl)phosphonic acid]: the DC50 under setting [2] is above 10 µM and the DC50 under setting [1] was above 10 µM.
